Measurements published in patent US20130018033A1, “RAF INHIBITOR COMPOUNDS AND METHODS OF USE THEREOF” (ARRAY BIOPHARMA INC., priority 2009, published 2013).
Like-named read-outs stand apart in the source and are kept apart here.

Experiments:
[1] = test system: basal ERK1/2 phosphorylation in Malme-3M cells; assay: Cellular ERK 1/2 phosphorylation assay (Example A1); assay type: cell-based; details: Homo sapiens, 1 hour incubation, pERK normalized to total ERK, read-out: P-ERK Malme3-M IC50
Experimental: Inhibition of basal ERK1/2 phosphorylation was determined by the following in vitro […], which comprises incubating cells with a compound of Formula I for 1 hour and quantifying the fluorescent pERK signal on fixed cells and normalizing to total ERK signal.
Malme-3M cells were obtained from ATCC and grown in RPMI-1640 supplemented with 10% fetal bovine serum. Cells were plated in 96-well plates at 24,000 cells/well and allowed to attach for 16-20 hours at 37° C., 5% CO2. The media was removed, and DMSO-diluted compounds were added in RPMI-1640 at a final concentration of 1% DMSO. The cells were incubated with the compounds for 1 hour at 37° C., 5% CO2. The cells were washed with PBS and fixed in 3.7% formaldehyde in PBS for 15 minutes. This was followed by washing in PBS/0.05% Tween20 and permeabilizing in −20° C. 100% MeOH for 15 minutes. Cells were washed in PBS/0.05% Tween20 then blocked in Odyssey blocking buffer (LI-COR Biosciences) for 1 hour. Antibodies to phosphorylated ERK (1:400, Cell Signaling #9106, monoclonal) and total ERK (1:400, Santa Cruz Biotechnology #sc-94, polyclonal) were added to the cells and incubated 16-20 hours at 4° C. After washing with PBS/0.05% Tween20, the cells were incubated with fluorescently-labeled secondary antibodies (1:1000 goat anti-rabbit IgG-IRDye800, Rockland and 1:500 goat anti-mouse IgG-Alexa Fluor 680, Molecular Probes) for an additional hour. Cells were then washed and analyzed for fluorescence at both wavelengths using the Odyssey Infrared Imaging System (LI-COR Biosciences). Phosphorylated ERK signal was normalized to total ERK signal.

V600E full-length B-Raf = target: T1, V600E full-length B-Raf (Homo sapiens, UniProt P15056, V600E); assay: B-Raf IC50 assay (Example A); assay type: biochemical
T1 construct: 1 μM FSBA-MEK and 20 nM V600E full-length B-Raf; made in house; host or cells: Sf9 insect cells (baculovirus)
T1 sequence (P15056 whole entry V600E): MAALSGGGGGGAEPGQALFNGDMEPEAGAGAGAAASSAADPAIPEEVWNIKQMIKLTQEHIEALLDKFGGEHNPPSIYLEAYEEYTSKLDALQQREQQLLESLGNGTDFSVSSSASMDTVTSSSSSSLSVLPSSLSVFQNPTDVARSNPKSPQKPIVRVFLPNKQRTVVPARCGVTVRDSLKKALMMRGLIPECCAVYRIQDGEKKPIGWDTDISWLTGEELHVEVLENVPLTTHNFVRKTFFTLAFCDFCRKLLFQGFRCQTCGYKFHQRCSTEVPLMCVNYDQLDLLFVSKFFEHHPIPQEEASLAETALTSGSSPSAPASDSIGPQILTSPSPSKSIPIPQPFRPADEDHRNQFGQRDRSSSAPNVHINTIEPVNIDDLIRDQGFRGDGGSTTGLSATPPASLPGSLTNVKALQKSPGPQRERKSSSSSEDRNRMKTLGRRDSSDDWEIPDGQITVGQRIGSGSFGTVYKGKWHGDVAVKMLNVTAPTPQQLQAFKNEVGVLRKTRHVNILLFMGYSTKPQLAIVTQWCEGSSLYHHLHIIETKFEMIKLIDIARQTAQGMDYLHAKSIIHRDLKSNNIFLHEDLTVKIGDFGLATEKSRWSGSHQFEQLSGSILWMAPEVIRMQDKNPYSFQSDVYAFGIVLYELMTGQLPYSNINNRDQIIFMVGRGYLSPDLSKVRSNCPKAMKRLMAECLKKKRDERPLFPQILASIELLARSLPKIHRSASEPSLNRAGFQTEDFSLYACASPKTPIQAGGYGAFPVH
From the text: Determining the activity of Raf in the sample is possible by a number of direct and indirect detection methods (US 2004/0082014). Activity of human recombinant B-Raf protein may be assessed in vitro by assay of the incorporation of radio labeled phosphate to recombinant MAP kinase (MEK), a known physiologic substrate of B-Raf, according to US 2004/0127496 and WO 03/022840. The activity/inhibition of V600E full-length B-Raf was estimated by measuring the incorporation of radio labeled phosphate from [γ-^33P]ATP into FSBA-modified wild-type MEK (see Example A).
Activity of human recombinant B-Raf protein may be assessed in vitro by assay of the incorporation of radio labeled phosphate to recombinant MAP kinase (MEK), a known physiologic substrate of B-Raf, according to US 2004/0127496 and WO 03/022840. Catalytically active human recombinant B-Raf protein is obtained by purification from sf9 insect cells infected with a human B-Raf recombinant baculovirus expression vector.
The activity/inhibition of V600E full-length B-Raf was estimated by measuring the incorporation of radio labeled phosphate from [γ-^33P]ATP into FSBA-modified wild-type MEK. The 30-μL assay mixtures contained 25 mM Na Pipes, pH 7.2, 100 mM KCl, 10 mM MgCl2, 5 mM β-glycerophosphate, […], 4 μM ATP, 500 nCi [γ-^33P]ATP, 1 μM FSBA-MEK and 20 nM V600E full-length B-Raf. Incubations were carried out at 22° C. in a Costar 3365 plate (Corning). Prior to the assay, the B-Raf and FSBA-MEK were preincubated together in assay buffer at 1.5×(20 μL of 30 nM and 1.5 μM, respectively) for 15 minutes, and the assay was initiated by the addition of 10 μL of 10 μM ATP. Following the 60-minute incubation, the assay mixtures were quenched by the addition of 100 μL of 25% TCA, the plate was mixed on a rotary shaker for 1 minute, and the product was captured on a Perkin-Elmer GF/B filter plate using a Tomtec Mach III Harvester. After sealing the bottom of the plate, 35 μL of Bio-Safe II (Research Products International) scintillation cocktail were added to each well and the plate was top-sealed and counted in a Topcount NXT (Packard).

[2] = B-Raf V600E assay of Example A, read-out: IC50
[3] = [γ-33P]ATP incorporation into FSBA-MEK, 4 μM ATP, read-out: BRAF V600E IC50

IC50 (V600E full-length B-Raf; [2]) [nM] | IC50 (V600E full-length B-Raf; [3]) [nM] | Compound | IC50 [1] [nM]
< 100 | 12.7 | Nc1ncnc2c(C(=O)Nc3c(F)ccc(NS(=O)(=O)N4CCCC4)c3F)cccc12 [Example 34, 4-Amino-quinazoline-8-carboxylic acid [2,6-difluoro-3-(pyrrolidine-1-sulfonylamino)-phenyl]-amide] | 15.6
< 100 | 0.16 | N#Cc1c(NS(=O)(=O)N2CCCC2)ccc(F)c1NC(=O)c1cccc2c(N)ncnc12 [Example 35, 4-Amino-quinazoline-8-carboxylic acid [2-cyano-6-fluoro-3-(pyrrolidine-1-sulfonylamino)-phenyl]-amide] | 7.48
< 100 | 14.8 | CN(C)S(=O)(=O)Nc1ccc(F)c(NC(=O)c2cccc3c(N)ncnc23)c1F [Example 36, 4-Amino-N-(3-(N,N-dimethylsulfamoylamino)-2,6-difluorophenyl)quinazoline-8-carboxamide] | 25.2
< 100 | 21.5 | CCN(C)S(=O)(=O)Nc1ccc(F)c(NC(=O)c2cccc3c(N)ncnc23)c1Cl [Example 37, 4-Amino-N-(2-chloro-3-(N-ethyl-N-methylsulfamoylamino)-6-fluorophenyl)quinazoline-8-carboxamide] | 39.7
< 100 | 7.01 | CN(C)S(=O)(=O)Nc1ccc(Cl)c(NC(=O)c2cccc3c(N)ncnc23)c1F [Example 38, 4-Amino-N-(6-chloro-3-(N,N-dimethylsulfamoylamino)-2-fluorophenyl)quinazoline-8-carboxamide] | 28
< 100 | 7.5 | CN(C)S(=O)(=O)Nc1ccc(F)c(NC(=O)c2cccc3c(N)ncnc23)c1Cl [Example 39, 4-Amino-N-(2-chloro-3-(N,N-dimethylsulfamoylamino)-6-fluorophenyl)quinazoline-8-carboxamide] | 32.7
< 100 | 2.2 | CCCS(=O)(=O)Nc1ccc(F)c(NC(=O)c2cc(C#CCO)cc3c(N)ncnc23)c1F [Example 40, 4-Amino-6-(3-hydroxy-prop-1-ynyl)-quinazoline-8-carboxylic acid [2,6-difluoro-3-(propane-1-sulfonylamino)-phenyl]-amide] | 158
< 1000 | 293 | CCCS(=O)(=O)Nc1cc(F)c(F)c(NC(=O)c2cccc3c(NCCF)ncnc23)c1F [Example 43, 4-(2-Fluoro-ethylamino)-quinazoline-8-carboxylic acid [2,3,6-trifluoro-5-(propane-1-sulfonylamino)-phenyl]-amide] | 2910
< 1000 | 105 | CCCS(=O)(=O)Nc1cc(F)c(F)c(NC(=O)c2cccc3c(NN4CCOCC4)ncnc23)c1F [Example 47, 4-(Morpholin-4-ylamino)-quinazoline-8-carboxylic acid [2,3,6-trifluoro-5-(propane-1-sulfonylamino)-phenyl]-amide] | 1170
< 1000 | 143 | O=C(Nc1c(F)c(F)cc(NS(=O)(=O)CCCF)c1F)c1cccc2c(NC3CC3)ncnc12 [Example 51, 4-(Cyclopropylamino)-N-(2,3,6-trifluoro-5-(3-fluoropropylsulfonamido)phenyl)quinazoline-8-carboxamide] | 2310
< 1000 | 290 | CCNc1ncnc2c(C(=O)Nc3c(F)c(F)cc(NS(=O)(=O)CCCF)c3F)cccc12 [Example 52, 4-Ethylamino-quinazoline-8-carboxylic acid [2,3,6-trifluoro-5-(3-fluoro-propane-1-sulfonylamino)-phenyl]-amide] | 5290
< 1000 | 119 | CCCS(=O)(=O)Nc1ccc(F)c(NC(=O)c2cccc3cncnc23)c1F [Example 54, Quinazoline-8-carboxylic acid [2,6-difluoro-3-(propane-1-sulfonylamino)-phenyl]amide] | 526
< 100 | 32.2 | O=C(Nc1c(F)ccc(NS(=O)(=O)CCCF)c1F)c1cccc2cncnc12 [Example 55, Quinazoline-8-carboxylic acid [2,6-difluoro-3-(3-fluoro-propane-1-sulfonylamino)-phenyl]-amide] | 92.8
< 1000 | 204 | O=C(Nc1c(F)ccc(NS(=O)(=O)CC2CC2)c1F)c1cccc2cncnc12 [Example 56, Quinazoline-8-carboxylic acid (3-cyclopropylmethane-sulfonylamino-2,6-difluoro-phenyl)-amide] | 638
< 100 | 0.96 | O=C(Nc1c(Cl)ccc(NS(=O)(=O)CCCF)c1Cl)c1cccc2cncnc12 [Example 57, Quinazoline-8-carboxylic acid [2,6-dichloro-3-(3-fluoro-propane-1-sulfonylamino)-phenyl]-amide] | 87.6
< 100 | 17.1 | CCCS(=O)(=O)Nc1ccc(Cl)c(NC(=O)c2cccc3cncnc23)c1F [Example 58, Quinazoline-8-carboxylic acid [6-chloro-2-fluoro-3-(propane-1-sulfonylamino)-phenyl]-amide] | 301
< 100 | 1.49 | O=C(Nc1c(Cl)ccc(NS(=O)(=O)CCCF)c1F)c1cccc2cncnc12 [Example 59, Quinazoline-8-carboxylic acid [6-chloro-2-fluoro-3-(3-fluoro-propane-1-sulfonylamino)-phenyl]-amide] | 83.7
< 100 | 0.82 | Cc1ncnc2c(C(=O)Nc3c(Cl)ccc(NS(=O)(=O)CCCF)c3Cl)cccc12 [Example 60, 4-Methyl-quinazoline-8-carboxylic acid [2,6-dichloro-3-(3-fluoro-propane-1-sulfonylamino)-phenyl]-amide] | 53.4
< 100 | 19.3 | Cc1ncnc2c(C(=O)Nc3c(F)ccc(NS(=O)(=O)CCCF)c3F)cccc12 [Example 61, 4-Methyl-quinazoline-8-carboxylic acid [2,6-difluoro-3-(3-fluoro-propane-1-sulfonylamino)-phenyl]-amide] | 116
< 100 | 3.07 | Cc1ncnc2c(C(=O)Nc3c(Cl)ccc(NS(=O)(=O)CCCF)c3F)cccc12 [Example 62, 4-Methyl-quinazoline-8-carboxylic acid [6-chloro-2-fluoro-3-(3-fluoro-propane-1-sulfonylamino)-phenyl]-amide] | 44
< 100 | 1.01 | CCCS(=O)(=O)Nc1ccc(F)c(NC(=O)c2ccnc3c(N)ncnc23)c1Cl [Example 63, 4-Amino-pyrido[3,2-d]pyrimidine-8-carboxylic acid [2-chloro-6-fluoro-3-(propane-1-sulfonylamino)-phenyl]-amide] | 7.6
< 100 | 3.11 | CCCS(=O)(=O)Nc1ccc(F)c(NC(=O)c2ccnc3c(N)ncnc23)c1F [Example 64, 4-Amino-pyrido[3,2-d]pyrimidine-8-carboxylic acid [2,6-difluoro-3-(propane-1-sulfonylamino)-phenyl]-amide] | 9.7
